How the values were obtained:
DHT = DHT quantification with Elisa kit in PC3 cells treated with excessive testosterone; format: cell-based, human; settings: PC3 cells with excessive testosterone 8.8 μg/ml, finasteride 2 μg/ml (positive control)
Method: Total protein was isolated after 24 hours treatment with the extract of Curcuma mangga Val. et Zipp. The isolation was performed using Lysis Buffer and TRIzol method. The result of total protein isolation further was calculated using Lowry method. Protein that was obtained subsequently was used as a sample for Western Blot against 5-alpha-reductase and DHT, and the DHT test using Elisa kit Alpha Diagnostic International. The analytical process of semi-Western Blot was performed in accordance to the general method, which is using specific antibody for 5-alpha-reductase-1 and DHT. The detection of Western Blot was performed using HRP-conjugated (Horseradish Peroxidase) secondary antibody and coloring with luminol.
Quantitative analysis was performed using Elisa kit in accordance to the protocol provided by the manufacturer. PC3 cells that were used in this present invention was treated with excessive testosterone which is 8.8 μg/ml, and was treated with 150 μg/ml Curcuma mangga Val. et Zipp extract and 2 μg/ml finasteride, in separate groups. In this present invention, the finasteride treatment group was a positive control.

[1] = tested on: male rats (Rattus norvegicus) Wistar strain with induced prostate gland growth; assay: Inhibition of prostate gland growth in castrated, testosterone-induced rats; format: in vivo; settings: finasteride 1 mg/kg
Method: Animals that were used in the present invention were male rats (Rattus norvegicus) Wistar strain weighing between 200-250 grams from Indoanilab, Bogor, Indonesia. The animals were bred in special cages, in groups, with a normal light setting, which are 12 hours of light and 12 hours of dark and received food and drinking water ad libitum.
The animals were divided into five groups: sham-operated group (normal group), negative control group that is BPH group without any treatment, positive control group that is treated with finasteride 1 mg/kg of body weight, and treatment group which divided into two groups based on the dose of Curcuma mangga Val. et Zipp. extract that they received, namely 92.37 mg/kg and 184.74 mg/kg of body weight. In all animals the growth of its prostate gland were induced, except for the animals in the sham-operated group.
Those rats were induced with subcutaneous administration of testosterone injection to stimulate the growth of prostate gland at the dose of 10 mg/kg body weight, every day for 7 days. The administration of testosterone injection was performed after the removal of testes (castration) and sham surgery in rats. The castration procedures were performed to avoid bias caused by the differences of testosterone amount produced by each individual rat.

CC(C)(C)NC(=O)[C@H]1CC[C@H]2[C@@H]3CC[C@H]4NC(=O)C=C[C@]4(C)[C@H]3CC[C@]12C [finasteride]
DHT levels (Elisa kit) (DHT): reduced levels of DHT
DHT plasma concentration [1]: suppression of DHT plasma concentration
